Reference: the NIST ThermoML archive (doi:10.1021/je200922s)
Numbers after ± are expanded uncertainties.

Conditions: 101.33 kPa, Liquid; for viscosity: Capillary tube (Ostwald / Ubbelohde) method; for mass density: Vibrating tube method

Structure (SMILES) | viscosity (293.15 K) | mass density (293.15 K) | viscosity (298.15 K) | mass density (298.15 K) | viscosity (303.15 K) | mass density (303.15 K) | viscosity (308.15 K) | mass density (308.15 K) | viscosity (313.15 K) | mass density (313.15 K) | viscosity (318.15 K) | mass density (318.15 K) | viscosity (323.15 K) | mass density (323.15 K)
CCn1cc[n+](C)c1.O=S(=O)([N-]S(=O)(=O)C(F)(F)F)C(F)(F)F | 40.24 ± 1.6 mPa·s | 1523.28 ± 0.7 kg/m3 | 33.36 ± 1.4 mPa·s | 1518.25 ± 0.69 kg/m3 | 28.1 ± 1.1 mPa·s | 1513.23 ± 0.69 kg/m3 | 23.93 ± 0.98 mPa·s | 1508.2 ± 0.69 kg/m3 | 20.66 ± 0.85 mPa·s | 1503.16 ± 0.68 kg/m3 | 17.98 ± 0.73 mPa·s | 1498.19 ± 0.68 kg/m3 | 15.8 ± 0.65 mPa·s | 1493.33 ± 0.67 kg/m3
CN1CCCC1=O [N-methylpyrrolidone] | 1.811 ± 0.074 mPa·s | 1032.31 ± 0.26 kg/m3 | 1.667 ± 0.068 mPa·s | 1027.96 ± 0.25 kg/m3 | 1.543 ± 0.063 mPa·s | 1023.52 ± 0.25 kg/m3 | 1.437 ± 0.059 mPa·s | 1019.06 ± 0.25 kg/m3 | 1.343 ± 0.055 mPa·s | 1014.61 ± 0.24 kg/m3 | 1.258 ± 0.051 mPa·s | 1010.14 ± 0.24 kg/m3 | 1.184 ± 0.048 mPa·s | 1005.68 ± 0.24 kg/m3
CCO [ethanol] | 1.189 ± 0.048 mPa·s | 789.831 ± 0.12 kg/m3 | 1.095 ± 0.044 mPa·s | 785.535 ± 0.13 kg/m3 | 1.003 ± 0.041 mPa·s | 781.22 ± 0.13 kg/m3 | 0.914 ± 0.037 mPa·s | 776.875 ± 0.13 kg/m3 | 0.845 ± 0.034 mPa·s | 772.48 ± 0.13 kg/m3 | 0.765 ± 0.031 mPa·s | 768.042 ± 0.14 kg/m3 | 0.704 ± 0.029 mPa·s | 762.564 ± 0.14 kg/m3
